Source: PubChem BioAssay AID550 (SRMLSC, 2006)
Calls of active or inactive are those of the source.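 Rule for the calls: active = clearly stronger inhibition of the target decarboxylase than of the coupling enzymes tested in parallel without it; inactive = the rest.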

These molecules were tested against diphosphomevalonate decarboxylase (Streptococcus pneumoniae D39) (assay: S. pneumoniae DPM-DC inhibitor potency, dose response, biochemical, PK/LDH-coupled NADH fluorescence, hexokinase coupling counter-screen (AID 550)). Details: purified DPM-DC.
With `CCCn1c(=O)c2ccccc2n2c(SCC(=O)/C(C#N)=C(\C)N)nnc12` the outcome was “inactive”. In the case of `CN(C)CCSc1nnc(-c2ccccc2)o1`, the outcome is reported as “inactive”. For `O=S(=O)(Nc1cccc2ncccc12)c1cccs1`, the outcome was “inactive”. `COc1ccc(C2CC(c3cccc(C)c3)n3nc(N)nc3N2)cc1` (stereo not given) was tested, and the outcome was “inactive”. In the case of `O=C(c1ccccc1F)N(Cc1ccccc1)C1CCS(=O)(=O)C1` (stereo not given), the outcome is reported as “inactive”. `CCc1c(C)c(C#N)c2nc3ccccc3n2c1Nc1c(C)n(C)n(-c2ccccc2)c1=O` was tested, and the outcome was “inactive”. With `CCc1cc(/C(Cc2ccc3ccccc3n2)=N\O)c(O)cc1O` the outcome was “inactive”. In the case of `CCCN1C(=O)C(NC(C)=O)c2cc(OC)ccc21` (stereo not given), the outcome is reported as “inactive”. `CCCN(CC(=O)c1cc(C)n(C)c1C)S(=O)(=O)c1cccc(C(F)(F)F)c1` was tested, and the outcome was “inactive”. For `CC1Cc2nc(SCC(=O)Nc3ccc4c(c3)OCO4)n(CCc3ccccc3)c(=O)c2S1` (stereo not given), the outcome was “inactive”. In the case of `S=c1[nH]nc(-c2ccccc2)n1C1C=CCCC1` (stereo not given), the outcome is reported as “inactive”. In the case of `Cc1cc(-c2ccccc2)nc2cc(C(N)=O)nn12`, the outcome is reported as “inactive”. For `Cc1ccc(C2C3=C(CC(C)(C)CC3=O)N(CCN3CCOCC3)C3=C2C(=O)CC(C)(C)C3)cc1`, the outcome was “inactive”. `CCOc1ccc(C(=O)O)cc1OC` was tested, and the outcome was “inactive”. In the case of `Cc1cc(N2CCN(C(=O)c3ccco3)CC2)n2nc(-c3cccc(Cl)c3)cc2n1`, the outcome is reported as “inactive”. `CCOC(=O)C(Cc1ccccc1)C(=O)Nc1nccs1` (stereo not given) was tested, and the outcome was “inactive”. In the case of `O=C(O)CCn1nnc(-c2cccs2)n1`, the outcome is reported as “inactive”. In the case of `O=C(Nc1ccc(N2CCCCC2)cc1)c1cccnc1`, the outcome is reported as “inactive”. `CCOC(=O)c1[nH]c2ccc(OC)cc2c1NC(=O)CN1CCN(c2ccccn2)CC1` was tested, and the outcome was “inactive”. For `COC(=O)Cn1c(=NC(=O)CSC(C)=O)sc2ccccc21`, the outcome was “inactive”. `Cc1c(C(=O)NCC2CCCO2)sc2nc(-c3ccccc3)cn12` (stereo not given) was tested, and the outcome was “inactive”. In the case of `CCOC(=O)c1cc2c(=O)n(C)c3ccccc3c2s1`, the outcome is reported as “inactive”. For `COCCn1nnnc1CN(Cc1cccnc1)Cc1cc2cc(OC)ccc2[nH]c1=O`, the outcome was “inactive”. `O=C(NCc1cccnc1)c1ccc2c(=O)n(CCCN3CCCC3=O)c(=S)[nH]c2c1` was tested, and the outcome was “inactive”. With `Cc1ccc(S(=O)(=O)NCCN2CCOCC2)cc1C` the outcome was “inactive”. In the case of `COc1cc2c(C#N)c(N3CCN(c4ccccc4OC)CC3)nc(N)c2c(N)n1`, the outcome is reported as “inactive”. In the case of `COc1cccc(C(=O)OCn2nnc3ccccc3c2=O)c1`, the outcome is reported as “inactive”. `CCC(=O)Nc1cccc(NC(=O)CSc2nnnn2Cc2ccccc2)c1` was tested, and the outcome was “inactive”. In the case of `CCN(CC)CCOC(=O)c1ccc(N=CC2=C(O)CC(C)(C)CC2=O)cc1`, the outcome is reported as “inactive”. For `CCCn1c(C)nc2c(c1=O)c1nc3ccccc3nc1n2-c1ccc2c(c1)OCCO2`, the outcome was “inactive”. With `CC(=O)Nc1cccc(NC(=O)CSc2nnnn2Cc2ccccc2)c1` the outcome was “inactive”. In the case of `COc1cccc2cc3c(=O)n(-c4ccccc4)nc-3oc12`, the outcome is reported as “inactive”. In the case of `CCOC(=O)c1cncc(NC(=O)c2ccccc2)c1`, the outcome is reported as “inactive”. In the case of `CCOC(=O)COc1ccc2nsnc2c1Cl`, the outcome is reported as “inactive”. For `CN(C)C(=O)N1CCC(C(=O)NCc2cccs2)CC1`, the outcome was “inactive”. For `CCOC(=O)c1c(CC(C)C)csc1NC=O`, the outcome was “inactive”. `Cc1ccc(C2C3CN(C(C)C)CC=C3C(C#N)=C(N)C2(C#N)C#N)cc1` (stereo not given) showed an IC50 of 39.6 µM. With `CCc1ccc(CCC(=O)Nc2ccc(C)c(C)c2)o1` the outcome was “inactive”. `CC(C)CC(=O)NCC(C)NC(=O)CC(C)C` (stereo not given) was tested, and the outcome was “inactive”. `COc1cc2c(cc1OC)/C(=C/C(=O)N1CCOCC1)NC(C)(C)C2` was tested, and the IC50 was 38.8 µM. `Nc1nc(N)c2sc3nc4c(cc3c2n1)CCC4` was tested, and the outcome was “inactive”. With `CN(C)S(=O)(=O)c1cccc(C(=O)C2=C3SC=C(c4ccccc4)N3CC2)c1` the outcome was “inactive”. With `Cc1cccc(OCC(O)Cn2c(-n3nc(C)cc3C)nc3c2c(=O)[nH]c(=O)n3C)c1` (stereo not given) the outcome was “inactive”. With `CC(=NCc1ccco1)c1c(C)[nH]n(-c2nc3ccccc3s2)c1=O` the outcome was “inactive”. For `CCc1ccc(S(=O)(=O)NCc2cn3ccsc3n2)s1`, the outcome was “inactive”. With `COc1ccccc1NC(=O)CSc1nc(O)cc(=O)n1-c1ccccc1OC` the outcome was “inactive”. `Cc1noc(C)c1CSc1nc2ccccc2s1` was tested, and the outcome was “inactive”. With `CC(C)(C)CC(=O)Nc1nnc(-c2cccs2)s1` the outcome was “inactive”. In the case of `Cc1cnc(SCCc2ccncc2)nc1C`, the outcome is reported as “inactive”. With `CCCc1nnc(NC(=O)CN2CCOCC2)s1` the outcome was “inactive”. In the case of `Cc1nc(-c2cnn(-c3ccccc3)c2)c2cc(C)oc2n1`, the outcome is reported as “inactive”. For `CN1CC(=O)NC1=NC(=O)C12CC3CC(CC(C3)C1)C2`, the outcome was “inactive”. In the case of `COC(=O)CC1SC(=O)NC1=Nc1ccccc1` (stereo not given), the outcome is reported as “inactive”. With `Cc1ccccc1CN1CCN(S(=O)(=O)c2ccc(F)cc2)CC1` the outcome was “inactive”. In the case of `COc1ccc(N2C(C)=CS/C2=C(/C#N)c2nnc(N3CCOCC3)n2-c2ccccc2)cc1`, the outcome is reported as “inactive”. `Cc1ccc(-n2c(SCC(=O)NCc3ccco3)nnc2-c2cccnc2)c(C)c1` was tested, and the outcome was “inactive”. With `Cc1ccccc1Cc1c(C)nc2c(C(=O)N3CCN(Cc4ccc5c(c4)OCO5)CC3)cnn2c1C` the outcome was “inactive”. In the case of `Clc1c(-c2nnc3n2CCC3)sc2ccccc12`, the outcome is reported as “inactive”. In the case of `CCOc1cc(NC(=O)c2ccco2)c(OCC)cc1NC(=O)CCc1ccc(OC)cc1`, the outcome is reported as “inactive”. For `O=C(c1ccc(F)cc1)N1CCC(N2CCCCCC2)CC1`, the outcome was “inactive”. `COc1cccc(/C=N\n2c(C)nnc2C)c1OC` was tested, and the outcome was “inactive”. In the case of `Cc1nc2cc(NC(=O)NCc3ccco3)ccc2n1C`, the outcome is reported as “inactive”. With `CCn1c(SCC(=O)Nc2cccc(C(C)=O)c2)nnc1C(C)C` the outcome was “inactive”. With `Cc1nc2nc(C)c(CCC(=O)N3CCOCC3)c(C)n2n1` the outcome was “inactive”. For `COc1ccc(C(O)Cn2c(=N)n(CCCN(C)C)c3ccccc32)cc1` (stereo not given), the outcome was “inactive”. `COc1ccc(C2C3=C(OC(C)=O)c4ccccc4C3=Nc3c2c(=O)n(C)c(=O)n3C)cc1` (stereo not given) was tested, and the outcome was “inactive”. For `O=C(CSc1ncnc2c1cnn2-c1ccccc1)Nc1ccc2c(c1)OCO2`, the outcome was “inactive”. In the case of `Cc1cc(C(=O)CSc2nnnn2-c2ccc(Cl)cc2)c(C)n1CC1CCCO1` (stereo not given), the outcome is reported as “inactive”. With `Cc1cc(=O)[nH]c2ccccc12` the outcome was “inactive”. With `CN(C)C(=O)Nc1cnc2ccccc2c1` the outcome was “inactive”. With `CCOc1ccc(N(CC(=O)NC2CCCC(C)C2C)S(=O)(=O)c2c(C)noc2C)cc1` (stereo not given) the outcome was “inactive”. `CC1(C)C(C=C(Cl)Cl)C1C(=O)N1CCN(c2ccccc2)CC1` (stereo not given) was tested, and the outcome was “inactive”. For `O=P1(NC2CCCC2)COc2ccccc2OC1`, the outcome was “inactive”. With `COc1cc(-c2nc3cnccc3n2C)cc(OC)c1OC` the outcome was “inactive”. With `Cc1c(NC(=O)C2CCN(S(=O)(=O)c3ccccc3)CC2)c(=O)n(-c2ccccc2)n1C` the outcome was “inactive”. `O=C(CSc1nnnn1Cc1ccccc1)NCCc1ccccc1` was tested, and the outcome was “inactive”. In the case of `CCN(CC)CCCN(Cc1cc2cc3c(cc2[nH]c1=O)OCCO3)C(=O)Nc1ccccc1`, the outcome is reported as “inactive”. With `COC(=O)C1=C(C)OC(N)=C(C#N)C1c1cc(OC)c(OCC(N)=O)cc1Cl` (stereo not given) the outcome was “inactive”. For `CCOc1ccc(N2CC(C(=O)OC)CC2=O)cc1` (stereo not given), the outcome was “inactive”. With `COc1ccccc1CNc1ncnc2nc[nH]c12` the outcome was “inactive”.
